Drawing on patent US7189851B2, “Condensed heterocyclic compounds as calcitonin agonists” (SmithKline Beecham Corporation, priority 2002, dated 2007), this text covers EC50 for 18 molecules.

Where only a bound is given, the exact number is not on record here.

The target of this experiment is T1, human calcitonin-2 receptor (hCT2R) (Homo sapiens, UniProt P30988).
T1 construct: expressed in transfected cells; host or cells: Chinese hamster ovary (CHO) cells co-transfected with a 6CRE-luciferase reporter; receptor cDNA cloned from the MCF7 cell line
T1 sequence (P30988 25-474): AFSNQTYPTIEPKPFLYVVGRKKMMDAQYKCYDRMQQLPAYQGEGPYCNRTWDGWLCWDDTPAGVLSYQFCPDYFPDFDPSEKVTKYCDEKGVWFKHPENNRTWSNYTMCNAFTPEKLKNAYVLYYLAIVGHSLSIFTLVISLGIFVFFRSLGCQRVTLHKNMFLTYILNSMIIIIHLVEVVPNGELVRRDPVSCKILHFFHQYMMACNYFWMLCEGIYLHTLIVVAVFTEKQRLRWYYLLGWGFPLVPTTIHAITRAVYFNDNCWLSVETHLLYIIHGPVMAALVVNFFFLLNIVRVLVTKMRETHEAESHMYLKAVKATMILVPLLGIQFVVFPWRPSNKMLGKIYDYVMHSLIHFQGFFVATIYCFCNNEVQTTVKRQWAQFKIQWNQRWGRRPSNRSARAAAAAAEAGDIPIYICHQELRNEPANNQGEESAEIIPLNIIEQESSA
Briefly: HCT2R CRE-luc reporter assay. It is filed as cell-based. The settings on record: agonist activity; CHO-6CRE-luciferase cells co-transfected with hCT2R. As for the experimental part:
The compounds of the present invention elicit important and measurable pharmacological responses. As is to be expected, the efficacy of any compound will vary depending upon the particular assay and the particular compound tested.
All recombinant cell line human calcitonin receptor assays were carried out with the human receptor corresponding to GeneBank Accession Number X69920, [See: Molecular Pharmacology 46 (2):246–255, 1994, Cloning and characterization of an abundant subtype of the human calcitonin receptor] cloned from the MCF7 cell line (American Type Tissue Collection, Manassas, Va., USA, Catalog # HTB-22). Human calcitonin receptor (hCT2R) was cloned as a HindIII fragment into plasmid BS SKII. Chinese hamster ovary cells were co-transfected with a 6CRE-luciferase reporter system and hCTR2. HEK cells were transfected with hCTR2.
CHO-6CRE-luciferase cells with or without co-expressed hCTR2 were grown in suspension in commercially available cell culture medium supplemented with 2 mM L-glutamine and 5% fetal bovine serum (FBS). Sixteen hours before each assay, cells were collected and resuspended at 1,000,000 cells/ml in media without FBS. Cells were cultured in spinner flasks at 37° C. in an atmosphere of 5% CO2. At the time of the assay, cells were pelleted by centrifugation and resuspended in media without FBS at a concentration of 250,000 cells/ml. The cell suspension was pipetted into black 96-well microtiter plates (25,000 cells/well) containing test compounds. After a four-hour incubation at 37° C., media was aspirated, followed by addition of 50 microliters of LucLite and PBS (1:1) containing 1 mM CaCl2 and 1 mM MgCl2. The plates were sealed and incubated for 20 minutes in the dark. Luminescent responses were measured using a Packard TopCount.
Structure activity studies were performed on CHO-6CRE-luciferase cells with or without co-transfected hCT2R. Forty-eight hours before each assay, cells were removed with trypsin and plated in 96-well microtiter plates at a concentration of 25–100,000 cells/well. Sixteen hours before each assay, FBS-containing media was removed and replaced with media without FBS. Compounds were added and incubated for four hours at 37° C. After incubation, media was aspirated and 50 microliters of LucLite in PBS (1:1) containing 1 mM CaCl2 and 1 mM MgCl2 were added to each well. Plates were sealed and incubated for 20 minutes in the dark before quantification of luminescence on a Packard TopCount.
Concentration-response curves were calculated and potencies were reported as the concentration of compounds producing half-maximal responses (EC50) or the negative log of the concentration of compounds producing half-maximal responses (pEC50).
In general terms: In a reporter assay the amount or activity of a reporter protein is the signal.
Take `CCOC(=O)c1c(CCc2ccc(C(F)(F)F)cc2)nc2c(c1-c1ccc(C(=O)NCc3ccco3)cc1)C(=O)N1CSC[C@@H]21` [Example 34, Ethyl (9aR)-4-(4-{[(2-furylmethyl)amino]carbonyl}phenyl)-5-oxo-2-{2-[4-(trifluoromethyl)phenyl]ethyl}-9,9a-dihydro-5H-[1,3]thiazolo[3′,4′:1,2]pyrrolo[3,4-b]pyridine-3-carboxylate]: the EC50 (commonly the concentration that produces a half-maximal response) was no more than 10 nM. The figure for `O=C(NCc1ccco1)c1ccc(-c2c(NC(=O)C3CC3)c(CCc3ccc(C(F)(F)F)cc3)nc3c2C(=O)N2CCC[C@@H]32)cc1` [Example 26, 4-((9aS)-3-[(Cyclopropylcarbonyl)amino]-5-oxo-2-{2-[4-(trifluoromethyl)phenyl]ethyl}-7,8,9,9a-tetrahydro-5H-pyrido[2,3-α]pyrrolizin-4-yl)-N-(2-furylmethyl)benzamide] is 100 to 1000 nM; for `N#Cc1c(CCc2ccc(C(F)(F)F)cc2)nc2c(c1-c1ccc(C(=O)NCc3ccco3)cc1)C(=O)N1CCC[C@@H]21` [Example 28, 4-((9aS)-3-Cyano-5-oxo-2-{2-[4-(trifluoromethyl)phenyl]ethyl}-7,8,9,9a-tetrahydro-5H-pyrido[2,3-α]pyrrolizin-4-yl)-N-(2-furylmethyl)benzamide] it is 100 to 1000 nM; for `CCOC(=O)c1c(C(F)(F)F)nc2c(c1-c1ccc(C(=O)NCc3cccc(F)c3)cc1)c(=O)n1n2CCC1` [Example 10, Ethyl 4-(4-{[(3-fluorobenzyl)amino]carbonyl}phenyl)-5-oxo-2-(trifluoromethyl)-8,9-dihydro-5H,7H-pyrazolo[1′,2′:1,2]pyrazolo[3,4-b]pyridine-3-carboxylate] it is no less than 1000 nM.

As to `CCOC(=O)c1c(CCc2ccc(C(F)(F)F)cc2)nc2c(c1C1CC1C(=O)NCc1ccccc1)C(=O)N1CCC[C@@H]21` (stereo partly drawn) [Example 3, Ethyl (9aS)-4-{2-[(benzylamino)carbonyl]cyclopropyl}-5-oxo-2-{2-[4-(trifluoromethyl)phenyl]ethyl}-7,8,9,9a-tetrahydro-5H-pyrido[2,3-a]pyrrolizine-3-carboxylate], the concentration for a half-maximal effect (EC50) fell in the range of 100 to 1000 nM. For `CCOC(=O)c1c(CCCC(C)C)nc2c(c1-c1ccc(C(=O)N[C@@H]3CCc4ccccc43)cc1)C(=O)N1CCC[C@@H]21` [Example 43, Ethyl (9aS)-4-(4-{[(1R)-2,3-dihydro-1H-inden-1-ylamino]carbonyl}phenyl)-2-(4-methylpentyl)-5-oxo-7,8,9,9a-tetrahydro-5H-pyrido[2,3-α]pyrrolizine-3-carboxylate], the EC50 was no more than 10 nM.

For `CCOC(=O)c1c(Cc2ccc(F)cc2)nc2c(c1-c1ccc(C(=O)NCc3ccco3)nn1)C(=O)N1CCCC21` (stereo not drawn) [Example 39, Ethyl 2-(4-fluorobenzyl)-4-(6-{[(2-furylmethyl)amino]carbonyl}-3-pyridazinyl)-5-oxo-7,8,9,9a-tetrahydro-5H-pyrido[2,3-α]pyrrolizine-3-carboxylate], the half-maximal effective concentration (EC50) was in the range of 10 to 100 nM. Turning to `CCOC(=O)c1c(Cc2ccc(F)cc2)nc2c(c1-c1cc(C(=O)NCCc3cccs3)cc(C(F)(F)F)c1)C(=O)N1CCC[C@@H]21` [Example 54, Ethyl (9aS)-2-(4-fluorobenzyl)-5-oxo-4-[3-({[2-(2-thienyl)ethyl]amino}carbonyl)-5-(trifluoromethyl)phenyl]-7,8,9,9a-tetrahydro-5H-pyrido[2,3-α]pyrrolizine-3-carboxylate], the EC50 was no less than 1000 nM.

For the molecule `CCOC(=O)C1=C(Cc2ccc(F)cc2)Nc2c(c(=O)n3n2CCC3)C1c1ccc(C(=O)N[C@@H]2CCc3ccccc32)cc1` (stereo partly drawn) [Example 60, Ethyl 4-(4-{[(1R)-2,3-dihydro-1H-inden-1-ylamino]carbonyl}phenyl)-2-(4-fluorobenzyl)-5-oxo-1,5,8,9-tetrahydro-4H,7H-pyrazolo[1′,2′:1,2]pyrazolo[3,4-b]pyridine-3-carboxylate], the EC50 is 100 to 1000 nM.

For `CCOC(=O)c1c(CCc2ccc(F)cc2)cc2c(c1-c1ccc(C(=O)OCc3ccccc3)cc1)C(=O)N1CCC[C@@H]21` [Example 48, Ethyl (9bS)-6-{4-[(benzyloxy)carbonyl]phenyl}-8-[2-(4-fluorophenyl)ethyl]-5-oxo-2,3,5,9b-tetrahydro-1H-pyrrolo[2.1-a]isoindole-7-carboxylate], the EC50 was no less than 1000 nM. For “Ethyl (9αS)-4-{4-[(benzylamino)carbonyl]phenyl}-5-oxo-2-{2-[4-(trifluoro-methyl)phenyl]ethyl}-9,9a-dihydro-5H-[1,3]oxazolo[3′,4′:1,2]pyrrolo[3,4-b]pyridine-3-carboxylate [Example 36]” the value was 10 to 100 nM; for `CCOC(=O)c1c(CCc2ccc(C(F)(F)F)cc2)nc2c(c1-c1ccc(C(=O)NCCc3cnc[nH]3)cc1)C(=O)N1CCC[C@@H]21` [Example 42, Ethyl (9aS)-4-[4-({[2-(1H-imidazol-5-yl)ethyl]amino}carbonyl)phenyl]-5-oxo-2-{2-[4-(trifluoromethyl)phenyl]ethyl}-7,8,9,9a-tetrahydro-5H-pyrido[2,3-α]pyrrolizine-3-carboxylate], 100 to 1000 nM. For `CCOC(=O)c1c(CCc2ccc(C(F)(F)F)cc2)nc2c(c1-c1nc(C(=O)N[C@@H]3CCc4ccccc43)co1)c(=O)n1n2CCC1` [Example 21, Ethyl 4-(4-{[(1R)-2,3-dihydro-1H-inden-1-ylamino]carbonyl}-1,3-oxazol-2-yl)-5-oxo-2-{2-[4-(trifluoromethyl)phenyl]ethyl}-8,9-dihydro-5H,7H-pyrazolo[1′, 2′:1,2]pyrazolo[3,4-b]pyridine-3-carboxylate], the EC50 is 10 to 100 nM.

Take “Ethyl (9aS)-4-(4-{[(2-furylmethyl)amino]carbonyl}phenyl)-5-oxo-2-{2-[4-(trifluoromethyl)phenyl]ethyl}-7,8,9,9a-tetrahydro-5H-pyrido[2,3-α]pyrrolizine-3-carboxylate-N-oxide [Example 38]”: the EC50 fell in the range of 100 to 1000 nM.

Regarding `CCOC(=O)c1c(CCc2ccc(C(F)(F)F)cc2)nc2c(c1-c1ccc(C(=O)NCc3ccco3)cc1)C(=O)N1CS(=O)(=O)C[C@@H]21` [Example 35, Ethyl (9aR)-4-(4-{[(2-furylmethyl)amino]carbonyl}phenyl)-5-oxo-2-{2-[4-(trifluoromethyl)phenyl]ethyl}-9,9a-dihydro-5H-[1,3]thiazolo[3′,4′:1,2]pyrrolo[3,4-b]pyridine-3-carboxylate 8,8-dioxide], the EC50 was 10 to 100 nM. For `CCOC(=O)c1c(Cc2ccc(F)cc2F)nc2c(c1-c1cnc(C(=O)N[C@@H]3CCc4ccccc43)cn1)C(=O)N1CCC[C@@H]21` [Example 22, Ethyl(9aS)-2-(2,4-difluorobenzyl)-4-(5-{[(1R)-2,3-dihydro-1H-inden-1-ylamino]carbonyl}-2-pyrazinyl)-5-oxo-7,8,9,9a-tetrahydro-5H-pyrido[2,3-a]pyrrolizine-3-carboxylate] the value was 10 to 100 nM; for `O=C(NCc1ccco1)c1ccc(-c2c(C(=O)c3ccco3)c(CCc3ccc(F)cc3)nc3c2C(=O)N2CCC[C@@H]32)cc1` [Example 31, 4-[(9aS)-2-[2-(4-fluorophenyl)ethyl]-3-(2-furoyl)-5-oxo-7,8,9,9a-tetrahydro-5H-pyrido[2,3-α]pyrrolizin-4-yl]-N-(2-furylmethyl)benzamide], no more than 10 nM. For `CCOC(=O)c1c(Cc2ccc(F)cc2F)nc2c(c1-c1ccc(C(=O)NN3CCc4ccccc43)cc1)C(=O)N1CCC[C@@H]21` [Example 45, Ethyl (9aS)-2-(2,4-difluorobenzyl)-4-{4-[(2,3-dihydro-1H-indol-1-ylamino)carbonyl]phenyl}-5-oxo-7,8,9,9a-tetrahydro-5H-pyrido[2,3-α]pyrrolizine-3-carboxylate] the value was 10 to 100 nM.
